Blank lines part the entries; values can stand above or below the molecule they belong to. The source made the active and inactive calls. The calls are words filed in the database; no cut-off is given here.
Assays:
AD293 [1] = assay: Activation of human Slo G803D/N806K mutant expressed in human AD293 cells assessed as increase in channel activity by measuring change in relative fluorescence unit at 6 uM measured at 2 secs interval for 80 secs by FluxOR based fluorescence assay; format: cell-based; details: filed as activator, time 80.0 sec
AD293 [2] = assay: Activation of human Slo G803D/N806K mutant expressed in human AD293 cells assessed as initial velocity of channel activation at 6 uM measured at 2 secs interval for 4 secs by FluxOR based fluorescence assay; format: cell-based; details: filed as activator, time 4.0 sec
[3] = (§1) Activation of human Slo G803D/N806K mutant expressed in human AD293 cells measured at 2 secs interval for 120 secs by FluxOR based fluorescence assay; format: cell-based
[4] = Stability in human liver microsomes assessed as parent compound remaining at 1 uM measured after 30 mins in presence of NADPH regeneration system by LC-MS/MS analysis; format: ADME, Microsome; details: read-out: Stability
[5] = target: Calcium-activated potassium channel subunit alpha-1 (Rattus norvegicus) (UniProt Q62976); assay: Activation of rat Slo expressed in Xenopus laevis oocytes assessed as increase in intracellular maximum conductance at 10 uM with 100 mV holding potential by patch-clamp electrophysiological method relative to control; format: cell-based; details: Oocyte, filed as activator
[6] = AUC (0 to 8 hrs) in Sprague-Dawley rat at 10 mg/kg, po by LC-MS analysis; format: ADME, organism-based; parameters: time < 8 hr, dose 10 mg/kg, route po; details: in vivo
[7] = target: Calcium-activated potassium channel subunit alpha-1 (Rattus norvegicus) (UniProt Q62976); assay: Activation of rat Slo expressed in Xenopus laevis oocytes assessed as increase in maximum conductance at 10 uM with 100 mV holding potential by patch-clamp electrophysiological method relative to control; format: cell-based; details: Oocyte, filed as activator
[8] = target: Calcium-activated potassium channel subunit alpha-1 (Rattus norvegicus) (UniProt Q62976); assay: Activation of rat Slo expressed in Xenopus laevis oocytes assessed as shift in voltage at half activation at 10 uM with 100 mV holding potential by patch-clamp electrophysiological method; format: cell-based; details: Oocyte, filed as activator
[9] = Half life in Sprague-Dawley rat at 10 mg/kg, po by LC-MS analysis; format: ADME, organism-based; details: in vivo
AD293 [10] = assay: as §1; format: cell-based; details: filed as activator, time 120.0 sec, DDE = dose-dependent effect
[11] = AUC (infinity) in Sprague-Dawley rat at 10 mg/kg, po by LC-MS analysis; format: ADME, organism-based; parameters: time infinity, dose 10 mg/kg, route po; details: in vivo
Rattus norvegicus [12] = assay: Inhibition of overactive bladder activity in spontaneously hypertensive rat assessed as reduction in voiding frequency at 50 mg/kg, po measured after 3 hrs relative to control; format: functional
[13] = target: Calcium-activated potassium channel subunit alpha-1 (Rattus norvegicus) (UniProt Q62976); assay: Activation of rat Slo expressed in Xenopus laevis oocytes at 10 uM with 100 mV holding potential by patch-clamp electrophysiological method; format: cell-based; details: Oocyte, filed as activator
AD293 [14] = assay: Activation of human Slo G803D/N806K mutant expressed in human AD293 cells assessed as increase in initial velocity at 5 uM measured at 2 secs interval for 4 secs by FluxOR based fluorescence assay; format: cell-based; details: filed as activator, time 4.0 sec
[15] = AUC (0 to 8 hrs) in Sprague-Dawley rat at 5 mg/kg, iv by LC-MS analysis; format: ADME, organism-based; parameters: time < 8 hr, dose 5 mg/kg, route iv; details: in vivo
[16] = AUC (infinity) in Sprague-Dawley rat at 5 mg/kg, iv by LC-MS analysis; format: ADME, organism-based; parameters: time infinity, dose 5 mg/kg, route iv; details: in vivo
[17] = target: Calcium-activated potassium channel subunit alpha-1 (Rattus norvegicus) (UniProt Q62976); assay: Activation of rat Slo expressed in Xenopus laevis oocytes assessed as intracellular shift in voltage at half activation at 10 uM with 100 mV holding potential by patch-clamp electrophysiological method; format: cell-based; details: Oocyte, filed as activator
[18] = Half life in Sprague-Dawley rat at 5 mg/kg, iv by LC-MS analysis; format: ADME, organism-based; details: in vivo
[19] = Oral bioavailability in Sprague-Dawley rat at 10 mg/kg by LC-MS analysis; format: ADME, organism-based; details: in vivo
[20] = Clearance in Sprague-Dawley rat at 5 mg/kg, iv by LC-MS analysis; format: ADME, organism-based; details: in vivo
[21] = target: Calcium-activated potassium channel subunit alpha-1 (Rattus norvegicus) (UniProt Q62976); assay: Activation of rat Slo expressed in Xenopus laevis oocytes assessed as delayed channel closing 10 uM with 100 mV holding potential by patch-clamp electrophysiological method; format: cell-based; details: Oocyte, filed as activator
[22] = Volume of distribution at steady state in Sprague-Dawley rat at 5 mg/kg, iv by LC-MS analysis; format: ADME, organism-based; details: in vivo, read-out: Vdss
AD293 [23] = assay: Activation of human Slo G803D/N806K mutant expressed in human AD293 cells assessed as increase in initial velocity at 1 uM measured at 2 secs interval for 120 secs by FluxOR based fluorescence assay; format: cell-based; details: filed as activator, time 120.0 sec
[24] = Protein binding in human plasma at 5 uM measured after 4 hrs by LC-MS/MS analysis; format: ADME, cell-free; details: read-out: PPB
[25] = target: Calcium-activated potassium channel subunit alpha-1 (Rattus norvegicus) (UniProt Q62976); assay: Activation of rat Slo expressed in Xenopus laevis oocytes assessed as shortened channel opening 10 uM with 100 mV holding potential by patch-clamp electrophysiological method; format: cell-based; details: Oocyte, filed as activator
Rattus norvegicus [26] = assay: Inhibition of overactive bladder activity in spontaneously hypertensive rat assessed as reduction in voiding frequency at 10 mg/kg, po measured after 3 hrs; format: functional, organism-based
[27] = Protein binding in rat plasma at 5 uM measured after 4 hrs by LC-MS/MS analysis; format: ADME, cell-free; details: read-out: PPB
[28] = Tmax in Sprague-Dawley rat at 10 mg/kg, po by LC-MS analysis; format: ADME, organism-based; details: in vivo
[29] = Cmax in Sprague-Dawley rat at 10 mg/kg, po by LC-MS analysis; format: ADME, organism-based; parameters: dose 10 mg/kg, route po; details: in vivo

Calcium-activated potassium channel subunit alpha-1 (Rattus norvegicus), sequence (Q62976 whole entry): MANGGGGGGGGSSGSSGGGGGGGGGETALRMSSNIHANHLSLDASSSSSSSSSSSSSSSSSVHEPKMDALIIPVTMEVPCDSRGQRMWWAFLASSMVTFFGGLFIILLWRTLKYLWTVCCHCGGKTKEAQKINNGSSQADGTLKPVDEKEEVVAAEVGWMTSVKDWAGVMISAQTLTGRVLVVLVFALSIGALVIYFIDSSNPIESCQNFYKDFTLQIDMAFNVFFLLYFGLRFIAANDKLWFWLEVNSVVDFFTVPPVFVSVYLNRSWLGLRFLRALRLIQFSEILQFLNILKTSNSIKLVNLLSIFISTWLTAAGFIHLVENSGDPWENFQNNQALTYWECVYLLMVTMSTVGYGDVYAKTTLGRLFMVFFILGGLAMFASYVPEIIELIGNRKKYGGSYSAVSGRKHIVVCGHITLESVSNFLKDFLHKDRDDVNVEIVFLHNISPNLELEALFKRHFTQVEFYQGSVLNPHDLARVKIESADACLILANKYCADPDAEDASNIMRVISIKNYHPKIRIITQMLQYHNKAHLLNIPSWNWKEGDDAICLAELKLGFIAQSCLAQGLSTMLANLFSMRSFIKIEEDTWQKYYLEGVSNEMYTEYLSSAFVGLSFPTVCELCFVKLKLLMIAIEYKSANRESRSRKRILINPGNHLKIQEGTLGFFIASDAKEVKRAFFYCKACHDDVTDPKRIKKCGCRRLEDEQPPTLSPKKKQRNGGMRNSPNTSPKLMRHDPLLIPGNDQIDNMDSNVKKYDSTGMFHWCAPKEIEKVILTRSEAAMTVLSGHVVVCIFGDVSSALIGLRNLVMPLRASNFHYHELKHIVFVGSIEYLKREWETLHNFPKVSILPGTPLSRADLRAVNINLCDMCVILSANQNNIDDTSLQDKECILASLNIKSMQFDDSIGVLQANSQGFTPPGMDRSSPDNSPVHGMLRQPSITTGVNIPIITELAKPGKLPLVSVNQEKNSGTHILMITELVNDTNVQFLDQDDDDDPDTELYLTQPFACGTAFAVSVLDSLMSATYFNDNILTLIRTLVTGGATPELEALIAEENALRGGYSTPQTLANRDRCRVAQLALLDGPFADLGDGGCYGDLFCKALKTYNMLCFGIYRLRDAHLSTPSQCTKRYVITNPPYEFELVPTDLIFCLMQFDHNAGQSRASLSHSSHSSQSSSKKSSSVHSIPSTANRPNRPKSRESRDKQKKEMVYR

SMILES: Cc1ccc(NC(=O)c2sc(=S)n3c2[nH]c(=O)c2cc(Br)ccc23)cc1
- Activity (AD293 [1]): 1.41 RFU
- V0 (AD293 [2]): 0.71 s⁻¹

SMILES: O=C(NCc1ccccc1)c1sc(=S)n2c1[nH]c(=O)c1ccccc12
- Activity (AD293 [1]): 1.1 RFU
- V0 (AD293 [2]): 0.26 s⁻¹

SMILES: O=C(Nc1ccccc1)c1sc(=S)n2c1[nH]c(=O)c1cc(Cl)ccc12
- Activity (AD293 [1]): 1.18 RFU
- V0 (AD293 [2]): 0.38 s⁻¹

SMILES: NC(=O)c1sc(=S)n2c1[nH]c(=O)c1ccccc12
- Activity (AD293 [1]): 0.96 RFU
- V0 (AD293 [2]): 0.32 s⁻¹

SMILES: O=C(Nc1ccccc1)c1sc(=S)n2c1[nH]c(=O)c1ccccc12
- Activity (AD293 [1]): 1.03 RFU
- V0 (AD293 [2]): 0.42 s⁻¹

SMILES: Cc1ccc2c(c1)c(=O)[nH]c1c(C(=O)Nc3ccccc3)sc(=S)n12
- Activity (AD293 [1]): 1.16 RFU
- V0 (AD293 [2]): 0.32 s⁻¹

SMILES: O=C(Nc1ccccc1)c1sc(=S)n2c1[nH]c(=O)c1ccc(Cl)cc12
- Activity (AD293 [1]): 1.56 RFU
- V0 (AD293 [2]): 0.84 s⁻¹

SMILES: FC(F)(F)c1cc(NC(=S)Nc2ccc(Br)cc2-c2nnn[nH]2)cc(C(F)(F)F)c1
- Activity (AD293 [1]): 1.86 RFU
- EC50 [3]: 14.9 µM
- V0 (AD293 [2]): 1.63 s⁻¹

SMILES: O=C(Nc1cc(C(F)(F)F)cc(C(F)(F)F)c1)c1sc(=S)n2c1[nH]c(=O)c1cc(Br)ccc12
- Activity (AD293 [1]): 2.28 RFU
- EC50 [3]: 17.3 µM
- V0 (AD293 [2]): 2.08 s⁻¹

SMILES: O=C(Nc1cccc(OC(F)(F)F)c1)c1sc(=S)n2c1[nH]c(=O)c1cc(Br)ccc12
- Activity (AD293 [1]): 4.37 RFU
- EC50 [3]: 3.82 µM
- V0 (AD293 [2]): 14.8 s⁻¹

SMILES: O=C(Nc1cccc(Cl)c1)c1sc(=S)n2c1[nH]c(=O)c1cc(Br)ccc12
- Activity (AD293 [1]): 3.56 RFU
- EC50 [3]: 4.85 µM
- V0 (AD293 [2]): 16.1 s⁻¹

SMILES: O=C(Nc1ccccc1)c1sc(=S)n2c1[nH]c(=O)c1ccc(Br)cc12
- Activity (AD293 [1]): 1.25 RFU
- V0 (AD293 [2]): 0.56 s⁻¹

SMILES: Cc1ccc2c(=O)[nH]c3c(C(=O)Nc4ccccc4)sc(=S)n3c2c1
- Activity (AD293 [1]): 1.06 RFU
- V0 (AD293 [2]): 0.23 s⁻¹

Now from value to molecule, other results behind:

- EC50 [3]: 1.14 µM
- remaining at 0.5 h, 1 µM [4]: 56%
SMILES: O=C(Nc1cccc(F)c1)c1sc(=S)n2c1[nH]c(=O)c1cc(Br)ccc12
- Activity (AD293 [1]): 2.85 RFU
- V0 (AD293 [2]): 12.6 s⁻¹

- EC50 [3]: 11.2 µM
SMILES: O=C(Nc1cccc(O)c1)c1sc(=S)n2c1[nH]c(=O)c1cc(Br)ccc12
- Activity (AD293 [1]): 4.88 RFU
- V0 (AD293 [2]): 4.03 s⁻¹

- EC50 [3]: 5.74 µM
SMILES: Cc1cccc(NC(=O)c2sc(=S)n3c2[nH]c(=O)c2cc(Br)ccc23)c1
- Activity (AD293 [1]): 4.98 RFU
- V0 (AD293 [2]): 9.77 s⁻¹

- fold change (FC) [5]: 1.3
- AUC [6]: 13.64 uM.hr/ml
- fold change (FC) [7]: 1.5
- delta(V1/2) [8]: 42.6 mV
- half-life [9]: 8.5 h
- EC50 [3]: 2.89 µM
- AUC [11]: 17.2 uM.hr/ml
- Activity [13]: Active
- AUC [15]: 26.8 uM.hr/ml
- AUC [16]: 30.63 uM.hr/ml
- delta(V1/2) [17]: 7.5 mV
- half-life [18]: 6.59 h
- bioavailability [19]: 25.4%
- clearance [20]: 4.5 mL/min/kg
- remaining at 0.5 h, 1 µM [4]: 76%
- Activity [21]: Active
- Vd [22]: 1.83 L/kg
- fraction unbound at 4 h, 5 µM [24]: < 0.03
- Activity [25]: Active
- fraction unbound at 4 h, 5 µM [27]: < 0.03
- Tmax [28]: 6.67 h
- Cmax [29]: 1190 ng/mL
SMILES: O=C(Nc1cccc(C(F)(F)F)c1)c1sc(=S)n2c1[nH]c(=O)c1cc(Br)ccc12
- Activity (AD293 [1]): 3.35 RFU
- Activity (AD293 [10]): Dde
- V0 (AD293 [2]): 16.8 s⁻¹
- inhibition in vivo at 50 mg/kg (Rattus norvegicus [12]): 33%
- Activity (AD293 [14]): Active
- Activity (AD293 [23]): Active
- inhibition (Rattus norvegicus [26]): Active

- EC50 [3]: 12.7 µM
SMILES: O=C(O)c1sc(=S)n2c1[nH]c(=O)c1ccccc12
- Activity (AD293 [1]): 1.38 RFU
- V0 (AD293 [2]): 0.38 s⁻¹

- EC50 [3]: 6.6 µM
SMILES: COc1cccc(NC(=O)c2sc(=S)n3c2[nH]c(=O)c2cc(Br)ccc23)c1
- Activity (AD293 [1]): 3.35 RFU
- V0 (AD293 [2]): 6 s⁻¹

- EC50 [3]: 4.6 µM
SMILES: Cc1ccccc1NC(=O)c1sc(=S)n2c1[nH]c(=O)c1cc(Br)ccc12
- Activity (AD293 [1]): 3.68 RFU
- V0 (AD293 [2]): 9.4 s⁻¹

- EC50 [3]: 12.3 µM
SMILES: O=C(Nc1ccccc1)c1sc(=S)n2c1[nH]c(=O)c1cc(Br)ccc12
- Activity (AD293 [1]): 3.83 RFU
- V0 (AD293 [2]): 5.51 s⁻¹

From ChEMBL document CHEMBL5143743, “Novel Thioxothiazolo[3,4-a]quinazolin-5(4H)-one Derivatives as BKCa Channel Activators for Urinary Incontinence” (ACS Med Chem Lett, 2022)
